Values joined by “and” are separate entries in the source; they are usually repeats but may differ in a detail not shown here. Equal entries are not always repeated.
Legend:
[1] = test system: Histone H3 acetylation in lymphocytes; experiment: Lymphocyte histone H3 acetylation by flow cytometry, REDUC clinical trial Part A; type: in vivo, human; set-up: key to Histone Acetylation, Mean: MFI, background (isotype control) MFI subtracted; conditions: for Histone Acetylation (anti-acetyl histone H3 MFI in lymphocytes): individual subjects 1101, 1102, 1103, 1105, 1106, 1107 = c1-c6; for Histone Acetylation (anti-acetyl histone H3 MFI in lymphocytes) / Histone Acetylation, Mean: romidepsin 5 mg/m^2 i.v. days 0, 7, 14; for Histone Acetylation, Mean: mean of subjects
Description: (§1) Part A of the clinical study contained three phases. First, a pre-treatment phase of 2-4 weeks (visit 1-visit 2a) to confirm the stability of the latent HIV-1 reservoir and determine baseline HIV-1 T lymphocyte specific immunity. Second, a viral reactivation phase of 3 weeks (visit 2 to visit 7) consisting of one cycle of romidepsin infusions at a dosing of 5 mg/m^2 administered intravenously over a 4 hour period. De-escalation down to 2.5 mg/m^2 was planned in case of dose-limiting toxicity was observed. Romidepsin was infused on days 0, 7, and 14. Third, a post-activation phase of ˜9 weeks (visit 8 to visit 11) to assess the effect of romidepsin on the size of latent HIV-1I reservoir.
Histone H3 acetylation was measured in lymphocytes using flow cytometry with intracellular cytokine staining on fresh isolated PBMCs. Freshly isolated PBMC's were fixated, permeabilised and stained with acetylation-specific antibodies, providing the possibility to evaluate epigenetic modifications on Histones (Rigby L, Muscat A, Ashley D, Algar E. Epigenetics 2012; 7(8):875-882). Briefly, PBMCs (1×10^6) were resuspended in 3 ml ice-cold PBS/1% FBS and centrifuged, then vortexed to dissolve pellet and fixative added, 100 μl 2% PFA (ice-cold), vortexed briefly and incubated on ice for 15 min. Cells were then washed in 4 ml PBS, resuspend in 200 μl PBS and stored at 4° C. until staining. Samples were washed with 3 ml FACS buffer and vortexed to dissolve cell pellet prior to adding 100 μl 0.2% Triton X-100, vortex briefly and incubate for 10 min. at room temperature (RT). Samples were then washed with FACS buffer, 600 μl Block (PBS/10% FBS) was added, sample vortexed to resuspend cell pellet and incubate for 20 min at RT. After washing with 3 ml FACS buffer 5 μl primary antibody Anti-acetyl histone H3 (rabbit) at 200 μg/ml (Merck Millipore) or isotype control at 200 μg/ml (normal rabbit serum, LifeTechnologie) was added, and samples vortexed to resuspend cell pellet, and incubated for 1 hour at RT. Following this samples […]), vortexed to resuspend cell pellet and incubated for 1 hour in the dark (RT). Finall samples were washed with FACS buffer and resuspended in 80 μl PBS and analyzed by FACS (50 000 events, anti-acetyl histone H3 Median Fluorescence Intensity, MFI, calculated by subtracting background MFI from isotype control).

[2] = test system: HIV-1; experiment: Plasma HIV RNA quantitative viral load (Cobas TaqMan HIV-1 Test v2.0), REDUC Part A; type: in vivo, human; conditions: for HIV VL: individual subjects 1101, 1102, 1103, 1105, 1106, 1107 = c1-c6, romidepsin 5 mg/m^2 i.v. days 0, 7, 14
Description: as §1, with “First, a pre-treatment phase of 2-4 weeks (visit 1-visit 2a) to confirm the stability of the latent HIV-1 reservoir and determine baseline HIV-1 T lymphocyte specific immunity.” left out
Plasma HIV RNA, quantitative viral load, was measured by Cobas® TaqMan® HIV-1 Test, v2.0 (Roche) according the manufacturer's instruction (routine clinical assay). The lower limit of quantification for this assay is 20 copies HIV-1 RNA/mL, but it provides a qualitative assessment below this.

[3] = visit 2A (day 0, pre-treatment)

Compound: C/C=C1\NC(=O)[C@H]2CSSCC/C=C/[C@H](CC(=O)N[C@H](C(C)C)C(=O)N2)OC(=O)[C@H](C(C)C)NC1=O [romidepsin, (1S,4S,7Z,10S,16E,21R)-7-ethylidene-4,21-bis(1-methylethyl)-2-oxa-12,13-dithia-5,8,20,23-tetraazabicyclo[8.7.6]tricos-16-ene-3,6,9,19,22-pentone]
- Lymphocyte histone H3 acetylation, maximum fold range relative to baseline ([1]; following each romidepsin administration, 5 mg/m^2): 3.7-7.7 fold
- Histone Acetylation (anti-acetyl histone H3 MFI in lymphocytes) [1, 3]: 1181 and 1258 and 562 and 1020 and 309 and 372
- Histone Acetylation, Mean [1, 3]: 783.6667
- Histone Acetylation (anti-acetyl histone H3 MFI in lymphocytes) ([1]; visit 2B (day 0 + 4 h)): 3493 and 1534 and 3481 and 2473 and 2360 and 2463
- Histone Acetylation, Mean ([1]; visit 2B (day 0 + 4 h)): 2634
- Histone Acetylation (anti-acetyl histone H3 MFI in lymphocytes) ([1]; visit 3 (day 1)): 3465 and 2197 and 2451 and 2216 and 2475 and 1757
- Histone Acetylation, Mean ([1]; visit 3 (day 1)): 2426.833
- Histone Acetylation (anti-acetyl histone H3 MFI in lymphocytes) ([1]; visit 4 (day 3)): 3102 and 2964 and 3201 and 4130 and 3302 and 2767
- Histone Acetylation, Mean ([1]; visit 4 (day 3)): 3244.333
- Histone Acetylation (anti-acetyl histone H3 MFI in lymphocytes) ([1]; visit 5A (day 7)): 2065 and 2740 and 1284 and 2042 and 2863 and 596
- Histone Acetylation, Mean ([1]; visit 5A (day 7)): 1931.667
- Histone Acetylation (anti-acetyl histone H3 MFI in lymphocytes) ([1]; visit 5B (day 7 + 4 h)): 5363 and 4597 and 4059 and 3198 and 4239 and 2214
- Histone Acetylation, Mean ([1]; visit 5B (day 7 + 4 h)): 3945
- Histone Acetylation (anti-acetyl histone H3 MFI in lymphocytes) ([1]; visit 6 (day 10)): 2788 and 4124 and 3402 and 3859 and 3748 and 3280
- Histone Acetylation, Mean ([1]; visit 6 (day 10)): 3533.5
- Histone Acetylation (anti-acetyl histone H3 MFI in lymphocytes) ([1]; visit 7A (day 14)): 2486 and 3236 and 1789 and 1794 and 1438 and 1211
- Histone Acetylation, Mean ([1]; visit 7A (day 14)): 1992.333
- Histone Acetylation (anti-acetyl histone H3 MFI in lymphocytes) ([1]; visit 7B (day 14 + 4 h)): 7228 and 3580 and 3317 and 4101 and 5467 and 3444
- Histone Acetylation, Mean ([1]; visit 7B (day 14 + 4 h)): 4522.833
- Histone Acetylation (anti-acetyl histone H3 MFI in lymphocytes) ([1]; visit 8 (day 17)): 3875 and 4502 and 3147 and 3675 and 3572
- Histone Acetylation, Mean ([1]; visit 8 (day 17)): 3754.2
- Histone Acetylation (anti-acetyl histone H3 MFI in lymphocytes) ([1]; visit 9 (day 21)): 741 and 2416 and 1607 and 1923 and 1179 and 2467
- Histone Acetylation, Mean ([1]; visit 9 (day 21)): 1722.167
- Histone Acetylation (anti-acetyl histone H3 MFI in lymphocytes) ([1]; visit 10 (day 56)): 1733 and 3579 and 2622 and 3035 and 1592 and 1865
- Histone Acetylation, Mean ([1]; visit 10 (day 56)): 2404.333
- Histone Acetylation (anti-acetyl histone H3 MFI in lymphocytes) ([1]; visit 11 (day 84)): 1243 and 1823 and 1292 and 1287 and 1059 and 970
- Histone Acetylation, Mean ([1]; visit 11 (day 84)): 1279
- extracellular HIV RNA, change ([2]; as a result of romidepsin infusion): significantly increased
- plasma HIV-1 RNA ([2]; at baseline): < 20 copies/mL
- patients with plasma HIV-1 RNA increased to readily quantifiable levels ([2]; at multiple post-infusion time-points): 5 of 6
- plasma HIV-1 RNA ([2]; range following the second infusion, standard clinical assay): 46-103 copies/mL
- HIV VL ([2]; visit 1 (day −21, pre-treatment)): LOQ (LOQ = “detectable” not quantifiable HIV RNA<20 c/mL) (3×) and 40 HIV RNA copies/mL plasma and LOD (2×)
- HIV VL [2, 3]: LOD
- HIV VL ([2]; visit 2B (day 0 + 4 h)): LOQ (LOQ = “detectable” not quantifiable HIV RNA<20 c/mL) and LOD (5×)
- HIV VL ([2]; visit 3 (day 1)): 26 HIV RNA copies/mL plasma and LOD (2×) and LOQ (LOQ = “detectable” not quantifiable HIV RNA<20 c/mL) (2×) and 27 HIV RNA copies/mL plasma
- HIV VL ([2]; visit 4 (day 3)): LOQ (LOQ = “detectable” not quantifiable HIV RNA<20 c/mL) and 32 HIV RNA copies/mL plasma and LOD (4×)
- HIV VL ([2]; visit 5A (day 7)): LOQ (LOQ = “detectable” not quantifiable HIV RNA<20 c/mL) and LOD (5×)
- HIV VL ([2]; visit 5B (day 7 + 4 h)): 21 HIV RNA copies/mL plasma and LOD (3×) and 54 HIV RNA copies/mL plasma and LOQ (LOQ = “detectable” not quantifiable HIV RNA<20 c/mL)
- HIV VL ([2]; visit 6 (day 10)): 59 HIV RNA copies/mL plasma and 74 HIV RNA copies/mL plasma and LOQ (LOQ = “detectable” not quantifiable HIV RNA<20 c/mL) and LOD and 46 HIV RNA copies/mL plasma and 103 HIV RNA copies/mL plasma
- HIV VL ([2]; visit 7A (day 14)): LOD (5×) and LOQ (LOQ = “detectable” not quantifiable HIV RNA<20 c/mL)
- HIV VL ([2]; visit 7B (day 14 + 4 h)): LOQ (LOQ = “detectable” not quantifiable HIV RNA<20 c/mL) and LOD (5×)
- HIV VL ([2]; visit 9 (day 21)): LOQ (LOQ = “detectable” not quantifiable HIV RNA<20 c/mL) (3×) and LOD (3×)
- HIV VL ([2]; visit 10 (day 56)): LOD (3×) and 42 HIV RNA copies/mL plasma and LOQ (LOQ = “detectable” not quantifiable HIV RNA<20 c/mL) (2×)
- HIV VL ([2]; visit 11 (day 84)): LOQ (LOQ = “detectable” not quantifiable HIV RNA<20 c/mL) and LOD (4×) and 68 HIV RNA copies/mL plasma
- HIV VL ([2]; visit V8 (day 17)): 22 HIV RNA copies/mL plasma and LOD (2×) and LOQ (LOQ = “detectable” not quantifiable HIV RNA<20 c/mL) and 119 HIV RNA copies/mL plasma

Source: US10449245B2 (priority 2014, dated 2019)
